Measured values: US20220119446A1, “BIOMARKERS AND TREATMENT OF NEURONAL INJURY AND NEURODEGENERATION” (Board of Supervisons of Louisiana State University and …, priority 2018, published 2022)
Entries after “also recorded” stand apart in the source; their conditions may differ.

What was measured:
Wnt5a promoter A = assay: ChIP assay of cRel binding to Wnt5a promoter A with real-time PCR; type: cell-based, human; conditions: for cRel bound to genomic DNA, amplicon 3: RPE cells undergoing UOS, NPD1 added
Description: Based on the regions found to bind NF-κB members (Table 4), we designed four sets of primers that bound in the proximity or within the regions of interest to perform SYBR green-based real-time PCR detection (FIG. 2, D-F and Table 3). FIGS. 2, D and F and Table 5, also show regions of high probability for methylation, a mechanism for blocking Wnt5a transcription (Vaidya et al. 2016). Micrococcal […] digested genomic DNA fragments from UOS or UOS-plus-NPD1-treated RPE cells, +/−rWnt5a, were pulled down by an antibody against cRel and used to test the four sets of primers. […] Methylation of Region 1 may occur since it was predicted by the Methprimer software (Table 5). […] The results obtained for amplicon 3, indicate competition between the Wnt5a-activated p65 and NPD1-activated cRel (FIG. 2E).
The chromatin immunoprecipitation assay can be performed using SimpleChIP® Plus Enzymatic Chromatin IP Kit (Cell Signaling Technology, Boston, Mass.) following the manufacturer's recommendations including ChIP validated cRel antibody. Positive control Histone H3 antibody and normal serum can be provided by a kit, as well as control primers for human RPL30 Exon 3. Primers A1 to 4 can be designed using Primer-Blast (NCBI, Bethesda, Md.)((Ye et al. 2012) and are depicted in Table 5. The immunoprecipitated samples real-time PCR values can be standardized using 10% of the input chromatin preparation using primers A1, A2, and A3 pooled values and RPL30 Exon 3 values.
The chromatin immunoprecipitation assay was performed using SimpleChIP® Plus Enzymatic Chromatin IP Kit (Cell Signaling Technology, Boston, Mass., USA) following the manufacturer's recommendations including ChIP validated cREL antibody. Positive control Histone H3 antibody and normal serum was provided by the kit, as well as control primers for human RPL30 Exon 3. Primers A1 to 4 were designed using Primer-Blast at NCBI platform (Ye et al., 2012) and are depicted in Table S5. The immunoprecipitated samples real-time PCR values were standardized using 10% of the input chromatin preparation using primers A1, A2, and A3 pooled values and RPL30 Exon 3 values.

Wnt5a = assay: Western blot of secreted (sWnt5a) and cellular (cWnt5a) Wnt5a in RPE cells under UOS; type: cell-based, human
Description: To monitor transcription, translation, and secretion of Wnt5a, we performed western blot assays using cellular lysates and medium from hpRPE undergoing UOS+/−NPD1 at different time points. Medium was precipitated using Methanol/Chloroform to bring down all secreted Wnt5a.
The pellet can be re-suspended and denatured in 100 μl of 2× Laemmli sample buffer (Bio-Rad Laboratories, Hercules, Calif.) at 95° C. for 5 min. MCAo brain tissue and cell samples can be homogenized using RIPA (Thermo Fisher Scientific, Waltham, Mass.) buffer supplemented with protease and phosphatase inhibitor cocktails (Millipore Sigma, Burlington, Mass.). In embodiments, the amount of 30 μg of total protein is loaded in NuPAGE® Novex® 4-12% Bis-Tris precast gels (Life Technologies Corporation, Carlsbad, Calif.) and run at constant 120V for about 1 hour and 20 min. Proteins can be transferred to μm Nitrocellulose membrane using Bio-Rad Trans-Blot® Turbo™ System (Bio-Rad Laboratories, Hercules, Calif.). ECL™ Plex Fluorescent Rainbow Markers (GE Healthcare, Chicago, Ill.) can be used as the ladder for protein's molecular weight. Membranes can be blocked using 5% non-fat dry milk (Bio-Rad Laboratories, Hercules, Calif.) in TBS with 1% Tween® 20 (TBST-10×) (Croda International, Snaith, United Kingdom) for 1 hour and incubated overnight with primary antibodies. Anti-mouse or anti-rabbit secondary antibodies conjugated with Cy3 or Cy5 can be used to visualize the protein of interest. Immunoblots can be documented using LAS 4000 imaging system (GE Healthcare Life Sciences, Marlborough, Mass.). A time course exposition can be produced in each case to prevent quantification of saturated images. In embodiments, densitometry data are obtained using ImageQuant™ TL software (GE Healthcare Life Sciences, Marlborough, Mass.).
The pellet was re-suspended and denatured in 100 μl of 2× Laemmli sample buffer (Bio-Rad Laboratories) at 95° C. for 5 min. MCAo brain tissue and cell samples were homogenized using RIPA (Thermo Fisher Scientific) buffer supplemented with protease and phosphatase inhibitor cocktails (Sigma). The amount of 30 μg of total protein was loaded in NuPAGE® Novex® 4-12% Bis-Tris precast gels (Life Technologies Corporation) or Mini-PROTEAN TGX Stain free gels 4-15% and ran at constant 120V for 1 hour and 20 min or 250 V for 40 min respectively. Proteins were transferred to μm Nitrocellulose or LF-PVDF membrane using Bio-Rad Trans-Blot® Turbo™ System (Bio-Rad Laboratories). ECL™ Plex Fluorescent Rainbow Markers (GE Healthcare) were used as the ladder for protein's molecular weight. […] A time course exposition was produced in each case to prevent quantification of saturated images. […]

CC/C=C\C[C@H](O)\C=C/C=C/C=C/[C@H](O)C/C=C\C/C=C\CCC(=O)O [NPD1, 10R,17S-dihydroxy-docosa-4Z,7Z,11E,13E,15Z,19Z-hexaenoic acid]
cRel bound to genomic DNA, amplicon 2 (Region 3 and 4) (Wnt5a promoter A; RPE cells under UOS, NPD1 100 nM): twice the amount of cRel bound
cRel binding, amplicon 4 (Wnt5a promoter A; RPE cells undergoing UOS in the presence of rWnt5a): restored the cRel binding to control levels
cRel bound to genomic DNA, amplicon 3 (Wnt5a promoter A; Wnt5a present): 10 fold
cRel bound to genomic DNA, amplicon 3 (Wnt5a promoter A; absence of Wnt5a): more than 20 fold
cRel binding to genomic DNA, amplicon A1 (Wnt5a promoter A; RPE cells, UOS or UOS plus NPD1, +/−rWnt5a): no differences between treatments
secreted Wnt5a (sWnt5a) in medium (Wnt5a; ARPE-19 cells, 600 μM H2O2 and 10 ng/ml TNFα, 6 hours, 100 nM NPD1): disappeared; also recorded: decreases band intensity close to control levels
secreted Wnt5a (sWnt5a) in medium (Wnt5a; hpRPE cells under UOS, Pitstop2 added 2 hours before harvesting): decreased Wnt5a in the medium; also recorded: decreased media sWnt5a; also recorded: decreases soluble Wnt5a
